Source: paper PMC5951806, “Rapid labelling and covalent inhibition of intracellular native proteins using ligand-directed N-acyl-N-alkyl sulfonamide” (Nature Communications, 2018)

Target: T1, Carnitine O-palmitoyltransferase 1, liver isoform (CPT1A) (Homo sapiens, UniProt P50416)
T1 sequence (P50416 1-773): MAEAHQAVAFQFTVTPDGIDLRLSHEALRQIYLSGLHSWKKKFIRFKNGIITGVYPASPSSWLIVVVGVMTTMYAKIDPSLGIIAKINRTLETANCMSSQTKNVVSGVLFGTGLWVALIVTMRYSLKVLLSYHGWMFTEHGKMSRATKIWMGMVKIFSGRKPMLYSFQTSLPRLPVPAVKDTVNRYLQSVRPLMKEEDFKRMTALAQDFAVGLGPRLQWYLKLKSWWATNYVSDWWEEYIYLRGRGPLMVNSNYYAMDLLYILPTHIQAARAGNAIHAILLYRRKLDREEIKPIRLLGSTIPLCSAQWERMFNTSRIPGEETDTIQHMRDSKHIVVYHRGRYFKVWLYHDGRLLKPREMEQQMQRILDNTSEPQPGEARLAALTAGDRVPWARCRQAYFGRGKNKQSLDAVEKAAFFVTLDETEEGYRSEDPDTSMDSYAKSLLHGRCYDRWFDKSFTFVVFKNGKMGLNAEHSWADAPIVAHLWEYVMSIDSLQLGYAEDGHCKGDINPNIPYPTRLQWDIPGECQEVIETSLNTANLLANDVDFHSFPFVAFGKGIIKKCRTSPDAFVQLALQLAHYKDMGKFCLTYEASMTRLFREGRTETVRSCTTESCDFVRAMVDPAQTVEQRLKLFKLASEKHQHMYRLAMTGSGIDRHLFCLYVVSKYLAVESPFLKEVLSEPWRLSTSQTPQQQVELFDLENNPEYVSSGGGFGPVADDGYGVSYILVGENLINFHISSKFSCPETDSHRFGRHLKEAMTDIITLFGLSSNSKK
Experiment: TMT LC-MSMS of 11-labelled proteins
Type: cell-based

Abundance Ratio: (11) / (11 with PU-H71) (Exp3, CPT1A): 0.719 | Abundance Ratio: (11) / (DMSO) (Exp3, CPT1A): 1.338 | Abundances (Grouped): 11 (Exp3, CPT1A): 20.2 | Abundances (Grouped): 11 with PU-H71 (Exp3, CPT1A, with PU-H71): 28.1 | Abundance Ratio: (11) / (DMSO) (sheet Exp1, SKBR3 cells, 11 0.5 µM 3 h vs DMSO): 2.506 | Abundance Ratio: (11) / (11 with PU-H71) (sheet Exp1, SKBR3 cells, 11 0.5 µM 3 h vs with PU-H71 10 µM): 0.783 | Abundance Ratio: (11) / (DMSO) (sheet Merged, SKBR3 cells, 11 0.5 µM 3 h vs DMSO): 1.461 | Abundance Ratio: (11) / (11 with PU-H71) (sheet Merged, SKBR3 cells, 11 0.5 µM 3 h vs with PU-H71 10 µM): 0.79
SMILES: CC(=O)Oc1ccc2c(c1)Oc1cc(OC(C)=O)ccc1C21OC(=O)c2cc(C(=O)NCCOCCOCCNC(=O)CCCC(=O)N(CC#N)S(=O)(=O)c3ccc(C(=O)NCCCn4c(Sc5cc6c(cc5I)OCO6)nc5c(N)ncnc54)cc3)ccc21 [compound 11]
